Tested on: MV-4-11 cells
Test: Gene expression microarray analysis (Affymetrix PrimeView) and GSEA
Format: cell-based, human
Parameters: RFU PODN (11730768_x_at) / Fold change /veh PODN (11730768_x_at) / RFU LINC00158 (11744669_a_at) / Fold change /veh LINC00158 (11744669_a_at) / RFU DUSP10 (11751237_a_at) / Fold change /veh DUSP10 (11751237_a_at) / RFU ID3 (11757404_x_at) / Fold change /veh ID3 (11757404_x_at) / RFU PLEKHG5 (11737974_s_at) / Fold change /veh PLEKHG5 (11737974_s_at) / RFU LRRC4B (11730491_at) / Fold change /veh LRRC4B (11730491_at) / RFU GIMAP4 (11747438_a_at) / Fold change /veh GIMAP4 (11747438_a_at) / RFU KRT8 (11758183_x_at) / Fold change /veh KRT8 (11758183_x_at) / RFU CNN1 (11734310_a_at) / Fold change /veh CNN1 (11734310_a_at) / RFU VPS37D (11726825_at) / Fold change /veh VPS37D (11726825_at) / RFU C10orf10 (11716522_x_at) / Fold change /veh C10orf10 (11716522_x_at) / RFU KIR2DL2 /// KIR2DL4 /// KIR2DL5A /// KIR2DL5B /// KIR2DS1 /// KIR2DS2 /// KIR2DS3 /// KIR2DS4 /// KIR3DL3 /// KIR3DL3 /// KIR3DS1 (11738374_at) / Fold change /veh KIR2DL2 /// KIR2DL4 /// KIR2DL5A /// KIR2DL5B /// KIR2DS1 /// KIR2DS2 /// KIR2DS3 /// KIR2DS4 /// KIR3DL3 /// KIR3DL3 /// KIR3DS1 (11738374_at) / RFU C1QL1 (11718748_at) / Fold change /veh C1QL1 (11718748_at) / RFU TMPRSS4 (11747572_a_at) / Fold change /veh TMPRSS4 (11747572_a_at) / RFU HAMP (11756126_x_at) / Fold change /veh HAMP (11756126_x_at) / RFU RNFT2 (11725882_a_at) / Fold change /veh RNFT2 (11725882_a_at) / RFU NR4A2 (11747474_a_at) / Fold change /veh NR4A2 (11747474_a_at) / RFU ABCC12 (11746883_a_at) / Fold change /veh ABCC12 (11746883_a_at) / RFU TMEM136 (11760407_x_at) / Fold change /veh TMEM136 (11760407_x_at) / RFU CLDN22 /// WWC2 (11732394_at) / Fold change /veh CLDN22 /// WWC2 (11732394_at) / RFU HLA-DPB1 (11760878_x_at) / Fold change /veh HLA-DPB1 (11760878_x_at) / RFU SPINT1 (11716480_a_at) / Fold change /veh SPINT1 (11716480_a_at) / RFU GAP43 (11754022_s_at) / Fold change /veh GAP43 (11754022_s_at) / RFU A4GNT (11735810_at) / Fold change /veh A4GNT (11735810_at) / RFU PRB3 (11715151_x_at) / Fold change /veh PRB3 (11715151_x_at) / RFU TUBB4B (11761932_at) / Fold change /veh TUBB4B (11761932_at) / RFU CAPN14 (11732068_a_at) / Fold change /veh CAPN14 (11732068_a_at) / RFU TMCC2 (11721928_a_at) / Fold change /veh TMCC2 (11721928_a_at) / RFU IRGQ (11745062_a_at) / Fold change /veh IRGQ (11745062_a_at) / RFU FAM174B (11720279_a_at) / Fold change /veh FAM174B (11720279_a_at) / RFU TMPRSS4 (11748680_a_at) / Fold change /veh TMPRSS4 (11748680_a_at) / RFU FAM212B (11763350_a_at) / Fold change /veh FAM212B (11763350_a_at) / RFU PLEKHG5 (11743358_a_at) / Fold change /veh PLEKHG5 (11743358_a_at) / RFU ZSCAN30 (11745921_a_at) / Fold change /veh ZSCAN30 (11745921_a_at) / RFU CMKLR1 (11741424_a_at) / Fold change /veh CMKLR1 (11741424_a_at) / RFU LOC101060620 /// MAPK8IP1 (11723275_at) / Fold change /veh LOC101060620 /// MAPK8IP1 (11723275_at) / RFU SPTSSB (11747773_x_at) / Fold change /veh SPTSSB (11747773_x_at) / RFU PRSS12 (11739890_at) / Fold change /veh PRSS12 (11739890_at) / RFU BIN1 (11741810_x_at) / Fold change /veh BIN1 (11741810_x_at) / RFU WNT11 (11732464_a_at) / Fold change /veh WNT11 (11732464_a_at) / RFU C10orf10 (11716521_a_at) / Fold change /veh C10orf10 (11716521_a_at) / RFU C5orf56 (11738089_at) / Fold change /veh C5orf56 (11738089_at) / RFU CYB561 (11721691_x_at) / Fold change /veh CYB561 (11721691_x_at) / RFU ANKRD19P (11752326_a_at) / Fold change /veh ANKRD19P (11752326_a_at) / RFU OR2T12 /// OR2T33 /// OR2T8 (11738714_s_at) / Fold change /veh OR2T12 /// OR2T33 /// OR2T8 (11738714_s_at) / RFU VCAN (11748164_a_at) / Fold change /veh VCAN (11748164_a_at) / RFU JSRP1 (11732532_at) / Fold change /veh JSRP1 (11732532_at) / RFU KRTAP10-11 (11738290_x_at) / Fold change /veh KRTAP10-11 (11738290_x_at) / RFU MYO3A (11730013_a_at) / Fold change /veh MYO3A (11730013_a_at) / RFU EBF3 (11725865_a_at) / Fold change /veh EBF3 (11725865_a_at) / RFU CAMK2N1 (11719241_x_at) / Fold change /veh CAMK2N1 (11719241_x_at) / RFU C5orf56 (11738088_a_at) / Fold change /veh C5orf56 (11738088_a_at) / RFU OLFML3 (11715873_a_at) / Fold change /veh OLFML3 (11715873_a_at) / RFU LOC100653217 /// NTM (11731650_a_at) / Fold change /veh LOC100653217 /// NTM (11731650_a_at) / RFU MAPK11 (11762145_a_at) / Fold change /veh MAPK11 (11762145_a_at) / RFU FIZ1 (11724087_x_at) / Fold change /veh FIZ1 (11724087_x_at) / RFU OASL (11726364_x_at) / Fold change /veh OASL (11726364_x_at) / RFU SOX15 (11748057_x_at) / Fold change /veh SOX15 (11748057_x_at) / RFU CD79A (11719716_a_at) / Fold change /veh CD79A (11719716_a_at) / RFU HIST1H1D (11736915_at) / Fold change /veh HIST1H1D (11736915_at) / RFU CASKIN2 (11723855_a_at) / Fold change /veh CASKIN2 (11723855_a_at) / RFU LOC730098 (11760151_x_at) / Fold change /veh LOC730098 (11760151_x_at) / RFU OR4N2 (11742367_at) / Fold change /veh OR4N2 (11742367_at) / RFU PRRT2 (11749266_a_at) / Fold change /veh PRRT2 (11749266_a_at) / RFU SNX32 (11753110_a_at) / Fold change /veh SNX32 (11753110_a_at) / RFU CDHR5 (11726645_a_at) / Fold change /veh CDHR5 (11726645_a_at) / RFU RCAN1 (11760418_a_at) / Fold change /veh RCAN1 (11760418_a_at) / RFU FAM167A (11723789_a_at) / Fold change /veh FAM167A (11723789_a_at) / RFU FAM26E (11764081_at) / Fold change /veh FAM26E (11764081_at) / RFU ISYNA1 (11749810_s_at) / Fold change /veh ISYNA1 (11749810_s_at) / RFU ACY1 (11761880_at) / Fold change /veh ACY1 (11761880_at) / RFU 11764098_at / Fold change /veh 11764098_at / RFU SAMD14 (11745864_x_at) / Fold change /veh SAMD14 (11745864_x_at) / RFU NPB (11741838_a_at) / Fold change /veh NPB (11741838_a_at) / RFU TMPRSS6 (11731388_a_at) / Fold change /veh TMPRSS6 (11731388_a_at) / RFU KRTAP10-2 (11738614_at) / Fold change /veh KRTAP10-2 (11738614_at) / RFU ARHGAP8 /// PRR5-ARHGAP8 (11727945_x_at) / Fold change /veh ARHGAP8 /// PRR5-ARHGAP8 (11727945_x_at) / RFU KRTAP5-7 /// NADSYN1 (11734609_at) / Fold change /veh KRTAP5-7 /// NADSYN1 (11734609_at) / RFU RASL12 (11751679_a_at) / Fold change /veh RASL12 (11751679_a_at) / RFU CDKN2B (11736163_a_at) / Fold change /veh CDKN2B (11736163_a_at) / RFU PRF1 (11729649_at) / Fold change /veh PRF1 (11729649_at) / RFU, ZNF638 /// ZNF638-IT1 / Fold change vs veh, ZNF638 /// ZNF638-IT1 / RFU, PANK3 / Fold change vs veh, PANK3 / RFU, SH3YL1 / Fold change vs veh, SH3YL1 / RFU, ZEB2 / Fold change vs veh, ZEB2 / RFU, NRIP1 / Fold change vs veh, NRIP1 / RFU, PTTG1IP / Fold change vs veh, PTTG1IP / RFU, CAPN2 / Fold change vs veh, CAPN2 / RFU, MED14 / Fold change vs veh, MED14 / RFU, SNORA58 / Fold change vs veh, SNORA58 / RFU, C1orf63 / Fold change vs veh, C1orf63 / RFU, LRRFIP1 / Fold change vs veh, LRRFIP1 / RFU, NDUFAF7 / Fold change vs veh, NDUFAF7 / RFU, SLC12A2 / Fold change vs veh, SLC12A2 / RFU, IBTK / Fold change vs veh, IBTK / RFU, ESF1 / Fold change vs veh, ESF1 / Fold change vs veh, TMEM50B / RFU, TAOK1 / Fold change vs veh, TAOK1 / RFU, ACBD3 / Fold change vs veh, ACBD3 / RFU, TMA16 / Fold change vs veh, TMA16 / RFU, RWDD3 / Fold change vs veh, RWDD3 / RFU, BCAT1 / Fold change vs veh, BCAT1 / RFU, EDEM3 / Fold change vs veh, EDEM3 / RFU, TMEM33 / Fold change vs veh, TMEM33 / RFU, WDR75 / Fold change vs veh, WDR75 / RFU, AHCTF1 / Fold change vs veh, AHCTF1 / RFU, TFRC / Fold change vs veh, TFRC / RFU, ZDHHC17 / Fold change vs veh, ZDHHC17 / RFU, NOM1 / Fold change vs veh, NOM1 / RFU, ARL8B / Fold change vs veh, ARL8B / RFU, ZBTB11 / Fold change vs veh, ZBTB11 / RFU, TAMM41 / Fold change vs veh, TAMM41 / RFU, KIAA1704 /// LOC100996395 / Fold change vs veh, KIAA1704 /// LOC100996395 / RFU, ING1 / Fold change vs veh, ING1 / RFU, TRMT61B / Fold change vs veh, TRMT61B / RFU, FUBP3 / Fold change vs veh, FUBP3 / RFU, TP53 / Fold change vs veh, TP53 / RFU, TNKS2 / Fold change vs veh, TNKS2 / RFU, ZFP14 / Fold change vs veh, ZFP14 / RFU, ACTR2 / Fold change vs veh, ACTR2 / RFU, PPP3R1 / Fold change vs veh, PPP3R1 / RFU, PIK3R1 / Fold change vs veh, PIK3R1 / RFU, HNRNPA1 / Fold change vs veh, HNRNPA1 / RFU, RNF170 / Fold change vs veh, RNF170 / RFU, ZNF28 / Fold change vs veh, ZNF28 / RFU, RNGTT / Fold change vs veh, RNGTT / RFU, OGT / Fold change vs veh, OGT / RFU, BRD1 / Fold change vs veh, BRD1 / RFU, MARS / Fold change vs veh, MARS / RFU, ZNF655 / Fold change vs veh, ZNF655 / RFU, FAHD1 / Fold change vs veh, FAHD1 / RFU, BDP1 / Fold change vs veh, BDP1 / RFU, LRRCC1 / Fold change vs veh, LRRCC1 / RFU, ARID1A / Fold change vs veh, ARID1A / RFU, ZNF146 / Fold change vs veh, ZNF146 / RFU, ZNF330 / Fold change vs veh, ZNF330 / RFU, GPN3 / Fold change vs veh, GPN3 / RFU, C9orf123 / Fold change vs veh, C9orf123 / RFU, N4BP2L2 / Fold change vs veh, N4BP2L2 / RFU, ARFIP1 / Fold change vs veh, ARFIP1 / RFU, FAM179B / Fold change vs veh, FAM179B / RFU, BCL10 / Fold change vs veh, BCL10 / RFU, UHRF1BP1L / Fold change vs veh, UHRF1BP1L / RFU, BET1 / Fold change vs veh, BET1 / RFU, CNOT2 / Fold change vs veh, CNOT2 / RFU, ZNF268 / Fold change vs veh, ZNF268 / Fold change vs veh, ZNF507 / RFU, DGCR2 / Fold change vs veh, DGCR2 / RFU, WDSUB1 / Fold change vs veh, WDSUB1 / Fold change vs veh, HSP90B1 /// MIR3652 / RFU, ADSS / Fold change vs veh, ADSS / RFU, GK / Fold change vs veh, GK / RFU, ZNF148 / Fold change vs veh, ZNF148 / RFU, TAF9 / Fold change vs veh, TAF9 / RFU, SLC1A5 / Fold change vs veh, SLC1A5 / RFU, SLMO2 / Fold change vs veh, SLMO2 / RFU, ABCC4 / Fold change vs veh, ABCC4 / RFU, LOC101060439 /// RAP1B / Fold change vs veh, LOC101060439 /// RAP1B / RFU, RFX7 / Fold change vs veh, RFX7 / RFU, GTPBP10 / Fold change vs veh, GTPBP10 / RFU, CNEP1R1 / Fold change vs veh, CNEP1R1 / RFU, BIVM-ERCC5 /// ERCC5 / Fold change vs veh, BIVM-ERCC5 /// ERCC5 / RFU, ILF3 / Fold change vs veh, ILF3 / RFU 11762660_at / Fold change /veh 11762660_at / RFU VCAN (11757783_s_at) / Fold change /veh VCAN (11757783_s_at) / RFU DDX43 (11728927_at) / Fold change /veh DDX43 (11728927_at) / RFU KRT8 (11758188_x_at) / Fold change /veh KRT8 (11758188_x_at) / RFU NKD1 (11759106_at) / Fold change /veh NKD1 (11759106_at) / RFU SRD5A1 (11742802_a_at) / Fold change /veh SRD5A1 (11742802_a_at) / RFU TPSAB1 /// TPSB2 (11721975_s_at) / Fold change /veh TPSAB1 /// TPSB2 (11721975_s_at) / RFU GSTM3 (11746129_a_at) / Fold change /veh GSTM3 (11746129_a_at) / RFU IL23R (11737362_x_at) / Fold change /veh IL23R (11737362_x_at) / RFU TMEM51 (11727254_a_at) / Fold change /veh TMEM51 (11727254_a_at) / RFU PIWIL2 (11732686_x_at) / Fold change /veh PIWIL2 (11732686_x_at) / RFU ORM1 (11744905_x_at) / Fold change /veh ORM1 (11744905_x_at) / RFU CCDC152 (11743942_at) / Fold change /veh CCDC152 (11743942_at) / RFU ECM1 (11717891_a_at) / Fold change /veh ECM1 (11717891_a_at) / RFU IL23R (11748794_a_at) / Fold change /veh IL23R (11748794_a_at) / RFU TNFAIP8L3 (11732012_x_at) / Fold change /veh TNFAIP8L3 (11732012_x_at) / RFU MBOAT4 (11741988_at) / Fold change /veh MBOAT4 (11741988_at) / RFU 11764193_at / Fold change /veh 11764193_at / RFU TMEM53 (11763286_at) / Fold change /veh TMEM53 (11763286_at) / RFU MAGEB2 (11727129_at) / Fold change /veh MAGEB2 (11727129_at) / RFU TMEM200A (11744735_a_at) / Fold change /veh TMEM200A (11744735_a_at) / RFU CCDC152 (11751479_a_at) / Fold change /veh CCDC152 (11751479_a_at) / RFU FAM211A (11726209_a_at) / Fold change /veh FAM211A (11726209_a_at) / RFU RGS16 (11746705_a_at) / Fold change /veh RGS16 (11746705_a_at) / RFU VCAN (11755009_s_at) / Fold change /veh VCAN (11755009_s_at) / RFU RHOB (11743442_s_at) / Fold change /veh RHOB (11743442_s_at) / RFU RGS16 (11720943_a_at) / Fold change /veh RGS16 (11720943_a_at) / RFU RGS16 (11720944_at) / Fold change /veh RGS16 (11720944_at) / RFU, VPS4B / Fold change vs veh, VPS4B / RFU, CREB1 / Fold change vs veh, CREB1 / RFU, DNAJC13 / Fold change vs veh, DNAJC13 / RFU, GNAQ / Fold change vs veh, GNAQ / RFU, CDK5R1 / Fold change vs veh, CDK5R1 / RFU, ZRANB3 / Fold change vs veh, ZRANB3 / RFU, CUL4A / Fold change vs veh, CUL4A / RFU, CCNY / Fold change vs veh, CCNY / RFU, UFL1 / Fold change vs veh, UFL1 / RFU, COG3 / Fold change vs veh, COG3 / RFU, DIAPH2 / Fold change vs veh, DIAPH2 / RFU, SKA2 / Fold change vs veh, SKA2 / RFU, AFF3 / Fold change vs veh, AFF3 / RFU, LMF1 / Fold change vs veh, LMF1 / RFU, IPO11 / Fold change vs veh, IPO11 / RFU, DFFB / Fold change vs veh, DFFB / RFU, FOXP1 / Fold change vs veh, FOXP1 / RFU, CARD8 / Fold change vs veh, CARD8 / RFU, STRN3 / Fold change vs veh, STRN3 / RFU, ADK / Fold change vs veh, ADK / RFU, RASSF2 / Fold change vs veh, RASSF2 / RFU, WIPF1 / Fold change vs veh, WIPF1 / RFU, LARP1B / Fold change vs veh, LARP1B / RFU, RASA1 / Fold change vs veh, RASA1 / RFU, RB1 / Fold change vs veh, RB1 / RFU, PPFIA1 / Fold change vs veh, PPFIA1 / RFU, MAT2A / Fold change vs veh, MAT2A / RFU, CCT5 / Fold change vs veh, CCT5 / RFU, WDR92 / Fold change vs veh, WDR92 / RFU, CUX1 / Fold change vs veh, CUX1 / RFU, TTC7A / Fold change vs veh, TTC7A / RFU, TMEM135 / Fold change vs veh, TMEM135 / RFU, DEPTOR / Fold change vs veh, DEPTOR / RFU, CPM / Fold change vs veh, CPM / RFU, DNAJB6 / Fold change vs veh, DNAJB6 / RFU, CACNA2D3 / Fold change vs veh, CACNA2D3 / RFU, DTX4 / Fold change vs veh, DTX4 / RFU, TFCP2 / Fold change vs veh, TFCP2 / RFU, GMCL1 /// GMCL1P1 / Fold change vs veh, GMCL1 /// GMCL1P1 / RFU, AEBP2 / Fold change vs veh, AEBP2 / RFU, SNHG1 /// SNORD22 /// SNORD25 /// SNORD26 /// SNORD27 /// SNORD28 /// SNORD29 /// SNORD31 / Fold change vs veh, SNHG1 /// SNORD22 /// SNORD25 /// SNORD26 /// SNORD27 /// SNORD28 /// SNORD29 /// SNORD31 / Fold change (Aza/veh), C12orf56 (ProbeSet 11735607_a_at) / Fold change (ACY-1035/veh), C12orf56 (ProbeSet 11735607_a_at) / Fold change (Aza/veh), FGFR1OP (ProbeSet 11751329_s_at) / Fold change (ACY-1035/veh), FGFR1OP (ProbeSet 11751329_s_at) / Fold change (Aza/veh), VPS36 (ProbeSet 11739960_a_at) / Fold change (ACY-1035/veh), VPS36 (ProbeSet 11739960_a_at) / RFU SYPL1 (11715823_x_at) / Fold change /veh SYPL1 (11715823_x_at) / RFU IGFBP7 (11715501_s_at) / Fold change /veh IGFBP7 (11715501_s_at) / RFU REEP3 (11722064_at) / Fold change /veh REEP3 (11722064_at) / RFU IGLL1 (11728026_x_at) / Fold change /veh IGLL1 (11728026_x_at): dose or concentration left out as unconfirmed
Details: MV-4-11 cells, 48 hours

Structure (SMILES): Nc1ccc(-c2cccs2)cc1NC(=O)c1ccc2c(c1)cc(C1CC1)n2CCN1CCOCC1 [ACY-1035]
- Fold change /veh IRGQ (11745062_a_at): 0.91
